# pEC50: −log10 of the molar value. Where two headings read alike, the source gives them in different places.
# How the values were obtained:
# SARS-CoV-2 = experiment: microbe, parasite or virus in culture; assay type: cell-based; conditions: for EC50: Severe acute respiratory syndrome coronavirus 2, Vero C1008, read-out: SARS-CoV-2 Vero E6 EC50 (nM)*
# in vitro [1] = conditions: human, hepatocytes
# in vitro [2] = conditions: dog, MDCK
# [3] = Metabolic stability in cryopreserved human hepatocytes
# [4] = RRCK passive permeability; conditions: dog, MDCK
# SARS-CoV-2 PL^pro = SARS-CoV-2 PL^pro (Severe acute respiratory syndrome coronavirus 2, UniProt P0DTD1); experiment: PLpro enzymatic assay (Z-RLRGG-AMC substrate cleavage); assay type: biochemical; conditions: geometric mean of at least three replicates
SMILES,"pEC50 (SARS-CoV-2; Severe acute respiratory syndrome coronavirus 2, Vero C1008, read-out: EC50, cytopathic effect (CPE))",hepatocyte CLint (in vitro [1]),Papp (in vitro [2]),hepatocyte CLint [3],EC50 (SARS-CoV-2),Papp [4],Ki (SARS-CoV-2 PL^pro)
Cc1ccc(N)cc1C(=O)N[C@H](C)c1cccc2ccccc12 [Compound 1],4.17,20.9 µL/min/1e6 cells,45.6 ×10⁻⁶ cm/s,,,,
Cc1ccc(N2CCN(C)CC2)cc1C(=O)N[C@H](C)c1cc(-c2cnn(C)c2)nc2ccccc12 [Compound 3],,,,12.8 µL/min/1e6 cells,652 nM,41.9 ×10⁻⁶ cm/s,
Cc1ccccc1C(=O)N[C@H](C)c1cc(-c2cnn(C)c2)nc2ccccc12 [Compound 2],,,,13.9 µL/min/1e6 cells,1580 nM,42 ×10⁻⁶ cm/s,116 nM
